Results: patent US9090608B2, “Pharmaceutical composition for preventing or treating osteoporosis or obesity comprising phenyltetrazole derivative” (KOREA RESEARCH INSTITUTE OF CHEMICAL TECHNOLOGY, priority 2009, dated 2015)

Columns and labels:
Type in all cases: cell-based
RUNX2 = assay: TAZ activity of stimulating RUNX2 function (6xOSE-luc reporter in 293T cells); conditions: for activity at 10 µM: Homo sapiens, HEK-293T, 24 hours, 293T cells, percentage based on non-treated control cells, read-out: Activity (%): osteocalcin promoter activity; for Additional stimulating activity on TAZ stimulation of RUNX2: 10 μM, considered additional when value exceeds 570% of the average increase by protein TAZ
Method: Introduced in 293T cells were introduced RUNX2 and TAZ expression vector together with 6×OSE-luc (osteocalcin-specific element linked to luciferase, six copies of RUNX2-binding site in the osteocalcin promoter linked to luciferase) [Hong et al., Science 2005; 309:1074-8]. This test was for an evaluation of an activity of the inventive compounds in stimulating the luciferase activity which increases when RUNX2 binds to TAZ.
After 24 hours, the cells were treated with each of the inventive compounds to a concentration of 10 μM and then further cultivated for 24 hours. The procedure of Test 2 was repeated to extract the cell protein, and then reporter gene analysis was conducted to quantify the effect of the inventive compounds on the TAZ activity in stimulating RUNX2. For comparing the transformation efficaciency, β-galactosidase expression vector (pCMVβ) was introduced to 293T cells and the β-galactosidase activity was measured for calibration.
The osteocalcin promoter activity was analyzed in percentage term based on that of non-treated cells in a control group. When the value exceeds 570% of the average increase by protein TAZ, the compound was considered to have an additional stimulating activity.

3T3-L1 preadipocytes = assay: Differentiation of 3T3-L1 cells into adipocytes (Oil-red O staining); conditions: for Inhibition of adipocyte differentiation (Oil-red O staining): compound added at each medium replacement, after 8 days
Method: 3T3-L1 preadipocytes (ATCC CL-173) were dispersed in a DMEM medium comprising 10% FBS (fatal bovine serum , and then confluently cultivated for 48 hours in a 24-well plate (3×10^4 cells/well). 2 μM rosiglitazone, 5 μg/mL insulin, and 1 μM dexamethasone were added thereto to induce adipocyte differentiation.
After 48 hours, the medium was replaced with a DMEM comprising 5 μg/mL insulin and 10% FBS (fatal bovine serum), and 48 hours later, the medium was replaced with a DMEM comprising 10% FBS. Then, the medium was replaced every 48 hours to evaluate adipocyte differentiation. The inventive compounds were each added during the replacement of the medium. After 8 days, the cells were fixed with 10% formalin, and Oil-red O staining was conducted to confirm adipocytes generated in cells.

protein TAZ = target: T1, protein TAZ (Homo sapiens, UniProt Q9GZV5); assay: Stimulating TAZ protein migration toward nucleus (GFP-TAZ high-content imaging); conditions: 0.5 h, after 30 minutes, Cos cells, percentage based on non-treated control cells, read-out: Expression (%): GFP expression of protein TAZ in the nucleus
T1 construct: introducing full length TAZ cDNA synthesized by PCR method into vector pEGFP; expressed in transfected cells
Method: Vector pEGFP-TAZ in which GFP (green fluorescence protein) is linked to protein TAZ was prepared, and nucleus specific histone protein (RFP-H2B) expression vector having introduced RFP (red fluorescence protein) therein was prepared. The vector pEGFP-TAZ was prepared by introducing full length TAZ cDNA synthesized by PCR method into vector pEGFP (Invitrogen, Carlsbad, Calif., USA) and then cloning. The expression vector RFP-H2B was prepared by introducing full length histone H2B cDNA into expression vector RFP (Clontech Laboratories, Inc., Palo Alto, Calif., USA) and then cloning.
Cos? cells (ATCC, Manassas, Va.) were distributed to each well of a 96-well plate (5×10^3 cells/well) and stabilized, and then vectors pEGFP-TAZ and RFP-H2B were introduced into the cells by employing Effectene™ (Qiagen). After 48 hours, the cells were treated with each of the inventive compounds to a concentration of 10 μM. After 30 minutes, the movement of green fluorescent color toward the cell nucleus was observed continually by employing BD Pathway™ high-content bioimager (BD bioscience). Using a quantification program (BD IPLab™ for Pathway and BD™ Image Data Explorer), GFP expression in the nucleus of RFP-expressed cells was quantified.
GFP expressions of protein TAZ in the nucleus were analyzed and calculated in percentage term based on that of non-treated cells in a control group, which are shown in Table 3.

PPARγ = assay: TAZ activity of inhibiting PPARγ function (aP2-luc reporter in 293T cells); conditions: Homo sapiens, HEK-293T, 24 h, percentage based on inhibitory effect in non-treated control cells, read-out: Increased inhibition (%) of aP2 promoter activity
Source text: 293T cells (ATCC) were placed in the wells of a 48-well plate (1×10^5 cells/well) and stabilized. Introduced to the cells were PPARγ and TAZ expression vectors together with vectors aP2-luc (adipose fatty acid binding protein 2 promoter linked to luciferase) and pCMVβ Hong et al., Science 2005; 309:1074-8]. For observing the effect on transcription activation of the target gene by the PPARγ or TAZ protein expression, aP2-luc reporter gene was also introduced into the cells. For calibration of the introduction efficiency in cells, vector pCMVβ was introduced in cells in same amounts and the β-galactosidase activity was measured to calibrate the luciferase activity.
After 24 hours, the cells were treated with each of the inventive compounds to a concentration of 10 μM and then further cultivated for 24 hours. Proteins of the resulting cells were extracted with a lysis solution comprising NP-40, and thus luciferase activity was measured (Promega, Sunnyvale, Calif., USA).
Increased inhibitory effect on the aP2 promoter activity was analyzed and the results were calculated in percentage term based on the inhibitory effect on the aP2 promoter activity observed for the non-treated cells in a control group.

C3H10T1/2 cells = assay: Differentiation of C3H10T1/2 cells into osteoblasts (Alizarin red S staining); conditions: 10 μM, after 20 days
Method: C3H10T1/2 cells (ATCC CCL 226) were diluted in a α-MEM medium comprising 10% FBS, cultivated in a 96-well plate (1×10^4 cells/well) for 48 hours, and the medium was replaced every 48 hours to observe the osteoblast differentiation. On the initiation of differentiation, the medium was treated with 10 μM of each of the inventive compounds.
After 20 days, the cells were fixed with 70% ethanol and stained with an Alizarin red S solution to confirm increased calcium in osteocytes. In the Alizarin red staining test, the degrees of osteoblast differention can be identified by the intensity of red color.

T1 sequence (Q9GZV5 whole entry): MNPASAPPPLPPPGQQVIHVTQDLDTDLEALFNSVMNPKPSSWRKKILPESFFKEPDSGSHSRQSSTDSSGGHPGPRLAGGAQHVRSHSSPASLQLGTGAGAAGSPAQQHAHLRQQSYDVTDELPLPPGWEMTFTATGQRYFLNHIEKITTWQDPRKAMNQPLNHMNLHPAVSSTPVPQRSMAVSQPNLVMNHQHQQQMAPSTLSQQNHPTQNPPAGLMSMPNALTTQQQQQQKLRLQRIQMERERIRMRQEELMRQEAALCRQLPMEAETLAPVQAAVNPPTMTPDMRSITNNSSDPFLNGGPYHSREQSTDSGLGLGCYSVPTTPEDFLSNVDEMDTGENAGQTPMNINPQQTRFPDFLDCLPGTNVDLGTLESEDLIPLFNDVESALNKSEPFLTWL

| Structure (SMILES) | activity at 10 µM (RUNX2) [%] | Inhibition of adipocyte differentiation (Oil-red O staining) (3T3-L1 preadipocytes) | activity at 10 µM (protein TAZ) [%] | inhibition at 10 µM (PPARγ) [%] | Inhibition of adipocyte differentiation at a higher concentration (3T3-L1 preadipocytes; treating at a higher concentration) | Additional stimulating activity on TAZ stimulation of RUNX2 (RUNX2) | Stimulation of osteoblast differentiation (Alizarin red staining) (C3H10T1/2 cells) |
| --- | --- | --- | --- | --- | --- | --- | --- |
| CCCCc1nc2cc(C(=O)OC)c(/C=C/c3ccccc3)cc2n1Cc1ccc(-c2ccccc2-c2nnn[nH]2)cc1 [XII, methyl 2-butyl-6-styryl-1-[2′-(1H-tetrazol-5-yl)biphenyl-4-ylmethyl]-1H-benzimidazol-5-carboxylate] | 296 | adipocyte differentiation was inhibited | 149 | > 60 | – | – | – |
| CCCCc1nc2cc(/C=C/c3ccccc3)c(C(=O)OC)cc2n1Cc1ccc(-c2ccccc2-c2nnn[nH]2)cc1 [XIII, methyl 2-butyl-5-styryl-1-[2′-(1H-tetrazol-5-yl)biphenyl-4-ylmethyl]-1H-benzimidazol-6-carboxylate] | 569 | – | – | 39.9 | – | – | – |
| CCCCc1nc2cc(-c3cccc[n+]3[O-])c(CF)nc2n1Cc1ccc(-c2ccccc2-c2nnn[nH]2)cc1 [VI, 2-butyl-5-fluoromethyl-6-(1-oxypyridin-2-yl)-3-[2′-(1H-tetrazol-5-yl)biphenyl-4-ylmethyl]-3H-imidazo[4,5-b]pyridine] | 483 | – | 132 | 51.3 | – | – | – |
| CCCCc1nc2cc(C(O)c3ccccc3)c(C(OC)OC)nc2n1Cc1ccc(-c2ccccc2-c2nnnn2C(C)OCC)cc1 (centres unmarked) [VII, (2-butyl-5-dimethoxymethyl-3-{2′-[1-(1-ethoxyethyl)-1H-tetrazol-5-yl]biphenyl-4-ylmethyl}-3H-imidazo[4,5-b]pyridin-6-yl)phenylmethanol] | 476 | – | 160 | 46.7 | markedly increased inhibitory effect | – | – |
| CCc1nc2c(C)cc(CO)nc2n1Cc1ccc(-c2ccccc2-c2nnn[nH]2)cc1 [II, {2-ethyl-7-methyl-3-[2′-(1H-tetrazol-5-yl)biphenyl-4-ylmethyl]-3H-imidazo [4,5-b]pyridin-5-yl}methanol] | 473 | – | 130 | 43.2 | – | – | – |
| CCCCc1nc2cc(Br)c(COC(C)=O)nc2n1Cc1ccc(-c2ccccc2-c2nnn[nH]2)cc1 [X, 6-bromo-2-butyl-3-[2′-(1H-tetrazol-5-yl)biphenyl-4-ylmethyl]-3H-imidazo[4,5-b]pyridin-5-ylmethyl acetate] | 672 | – | – | 57.5 | – | additional stimulating activity was observed | – |
| CCCCc1nc2cc(-c3ccccn3)c(C(=O)OC)nc2n1Cc1ccc(-c2ccccc2-c2nnn[nH]2)cc1 [IV, methyl 2-butyl-6-pyridin-2-yl-3-[2′-(1H-tetrazol-5-yl)biphenyl-4-ylmethyl]-3H-imidazo[4,5-b]pyridine-5-carboxylate] | 463 | adipocyte differentiation was inhibited | 135 | – | – | – | – |
| CCCCc1nc2c(C)c(-c3ccccc3)c(COCSC)nc2n1Cc1ccc(-c2ccccc2-c2nnn[nH]2)cc1 [XI, 2-butyl-7-methyl-5-((methylsulfanylmethoxy)methyl)-6-phenyl-3-[2′-(1H-tetrazol-5-yl)biphenyl-4-ylmethyl]-3H-imidazo[4,5-b]pyridine] | 754 | – | 134 | – | – | additional stimulating activity was observed | – |
| CCCCc1nc2c(C)cc(CO)nc2n1Cc1ccc(-c2ccccc2-c2nnn[nH]2)cc1 [V, {2-butyl-7-methyl-3-[2′-(1H-tetrazol-5-yl)biphenyl-4-ylmethyl]-3H-imidazo[4,5-b]pyridin-5-yl}methanol] | 468 | – | 151 | 32.3 | – | – | osteoblast differentiation was stimulated |
| CCCCc1nc2cc(Br)c(COC(C)=O)nc2n1Cc1ccc(-c2ccccc2-c2nnnn2C(C)OCC)cc1 (centres unmarked) [IX, 6-bromo-2-butyl-3-{2′-[1-(1-ethoxyethyl)-1H-tetrazol-5-yl]biphenyl-4-ylmethyl}-3H-imidazo[4,5-b]pyridin-5-ylmethyl acetate] | 676 | – | 147 | 22.7 | – | additional stimulating activity was observed | – |
| CCCCc1nc2cc(C(O)c3ccccc3)c(C(OC)OC)nc2n1Cc1ccc(-c2ccccc2-c2nnn[nH]2)cc1 (centres unmarked) [VIII, {2-butyl-5-dimethoxymethyl-3-[2′-(1H-tetrazol-5-yl)biphenyl-4-ylmethyl]-3H-imidazo[4,5-b]pyridin-6-yl}phenylmethanol] | 688 | – | – | > 60 | – | additional stimulating activity was observed | – |
| CCCCc1nc2cc(-c3cccnc3)c(C)nc2n1Cc1ccc(-c2ccccc2-c2nnn[nH]2)cc1 [III, 2-butyl-5-methyl-6-pyridin-3-yl-3-[2′-(1H-tetrazol-5-yl)biphenyl-4-ylmethyl]-3H-imidazo[4,5-b]pyridine] | 259 | adipocyte differentiation was inhibited | 157 | > 60 | – | – | osteoblast differentiation was stimulated |
